# Patent publication US20150025085A1, “Iron Chelators And Uses Thereof” (Varinel Inc., priority 2012, published 2015)
# Like-named read-outs stand apart in the source and are kept apart here.
# What was measured:
# [1] = system: 6-OHDA lesioned rats; conditions: cited from earlier work; for activity (neuroprotection) against 6-OHDA in an animal model of Parkinson's disease: prior publications, Ben Shachar et al. 2004
# [2] = prior publications (WO 00/74664; WO 2004/041151); cited from earlier work
# [3] = system: lactacystin-lesioned mice; conditions: 5 mg/kg once a day i.p., 7 days before or after lactacystin microinjection; Zhu et al. 2007; cited from earlier work
# [4] = system: bacterial infections; conditions: described in PCT/US2012/023377 (WO 2012/106364); cited from earlier work
# [5] = system: clinical isolates of bacterial strains of A. baumannii; experiment: MIC by CLSI microdilution in RPMI 1640 (low iron) media; format: cell-based, Acinetobacter baumannii; set-up: key to MIC of compound 4: NG = no growth; conditions: for MIC: Acinetobacter baumannii
# Experimental: (§1) The minimal inhibitory concentration (MIC) of compound 4 was determined against standard strains of MDR bacteria and clinical isolates according to the guidelines of the Clinical and Laboratory Standards Institute (CLSI).
# […] The MIC was defined as the lowest drug concentration that caused 100% inhibition of visible bacterial growth after 24 hours incubation. Tests were performed in triplicate. MIC of Compound 4 were determined for nosocomial ESKAPE pathogens (Enterococcus faecium, Staphylococcus aureus, Klebsiella pneumoniae, Acinetobacter baumannii, Pseudomonas aeruginosa, and Enterobacter species).
# (§2) Tables l and 2 show the MIC of compound 4 determined in two different media for clinical isolates of bacterial strains of A. baumannii (AB) obtained from the Multidrug-resistant Organism Repository & Surveillance Network, USA.
# [6] = system: clinical isolates of bacterial strains of A. baumannii; experiment: MIC by CLSI microdilution in CAMHB media; format: cell-based; conditions: Acinetobacter baumannii, 24 h
# Experimental: as §1
# Individual MICs were determined following the microdilution method recommended by CLSI in cationic-adjusted Mueller-Hinton Broth (CAMHB), or M9 media. The MIC was defined as the lowest drug concentration that caused 100% inhibition of visible bacterial growth after 24 hours incubation. Tests were performed in triplicate. MIC of Compound 4 were determined for nosocomial ESKAPE pathogens (Enterococcus faecium, Staphylococcus aureus, Klebsiella pneumoniae, Acinetobacter baumannii, Pseudomonas aeruginosa, and Enterobacter species).
# as §2
# [7] = system: A. baumannii strain 5711; experiment: Growth curves (OD600) in CAMHB medium; format: cell-based, Acinetobacter baumannii; conditions: various concentrations, dose-responsive
# Text: (§3) It should be noted that the inhibition occurred in a dose-responsive manner.
# [8] = Stability in aqueous solution; format: physicochemical
# Text: as §3
# [9] = rats, Ben Shachar et al., Neuropharmacology 46 (2004) 254-263
# [10] = strain AB3638, read-out: MIC of compound 4
# [11] = strain AB3785, read-out: MIC of compound 4
# [12] = strain AB3806, read-out: MIC of compound 4
# [13] = strain AB3917, read-out: MIC of compound 4
# [14] = strain AB4025, read-out: MIC of compound 4
# [15] = strain AB4026, read-out: MIC of compound 4
# [16] = strain AB4027, read-out: MIC of compound 4
# [17] = strain AB4052, read-out: MIC of compound 4
# [18] = strain AB4269, read-out: MIC of compound 4
# [19] = strain AB4448, read-out: MIC of compound 4
# [20] = strain AB4456, read-out: MIC of compound 4
# [21] = strain AB4490, read-out: MIC of compound 4
# [22] = strain AB4498, read-out: MIC of compound 4
# [23] = strain AB4795, read-out: MIC of compound 4
# [24] = strain AB4857, read-out: MIC of compound 4
# [25] = strain AB4878, read-out: MIC of compound 4
# [26] = strain AB4932, read-out: MIC of compound 4
# [27] = strain AB4957, read-out: MIC of compound 4
# [28] = strain AB4991, read-out: MIC of compound 4
# [29] = strain AB5001, read-out: MIC of compound 4
# [30] = strain AB5075, read-out: MIC of compound 4
# [31] = strain AB5197, read-out: MIC of compound 4
# [32] = strain AB5256, read-out: MIC of compound 4
# [33] = strain AB5674, read-out: MIC of compound 4
# [34] = strain AB5711, read-out: MIC of compound 4
smiles,measurement,setting,value
C#CCN(C)Cc1ccc(O)c2ncccc12 [M30],activity (neuroprotection) against 6-OHDA in an animal model of Parkinson's disease,[1],active
same,ability to cross the BBB,[2],able to cross the BBB
"OCCN1CCN(Cc2ccc(O)c3ncccc23)CC1 [VK28, 5-[4-(2-hydroxyethyl)piperazin-1-ylmethyl]-8-hydroxyquinoline]",activity (neuroprotection) against 6-OHDA in an animal model of Parkinson's disease,[1],active
same,activity (neuroprotection) against 6-OHDA in an animal model of Parkinson's disease,[1]; listed as Vk-28,neuroprotection
same,basal striatal tissue monoamine concentrations,[1]; [9],no effect
same,"striatal 5-HT, 5-HIAA and NE concentrations",[1]; [9],not be affected
same,behavioral performances,[3],significantly improved
same,lactacystin-induced DA neuron loss in SN,[3],attenuated
same,lactacystin-induced iron accumulation in SN,[3],attenuated
same,lactacystin-induced microglial activation in SN,[3],attenuated
same,lactacystin-induced proteasomal inhibition in SN,[3],attenuated
same,antibacterial activity,[4],antibacterial activity
same,ability to cross the BBB,[2],able to cross the BBB
"OCCN1CCN(CCc2ccc(O)c3ncccc23)CC1 [Compound 4, 5-(2-(4-(2-hydroxyethyl)piperazin-1-yl)ethyl)-8-quinolinol]",MIC,[5]; [10],64 µg/mL
same,MIC,[5]; [11],32 µg/mL
same,MIC,[5]; [12],32 µg/mL
same,MIC,[5]; [13],32 µg/mL
same,MIC,[5]; [14],32 µg/mL
same,MIC,[5]; [15],32 µg/mL
same,MIC,[5]; [16],32 µg/mL
same,MIC,[5]; [17],64 µg/mL
same,MIC,[5]; [18],32 µg/mL
same,MIC,[5]; [19],64 µg/mL
same,MIC,[5]; [20],32 µg/mL
same,MIC,[5]; [21],32 µg/mL
same,MIC,[5]; [22],64 µg/mL
same,MIC,[5]; [23],32 µg/mL
same,MIC,[5]; [24],64 µg/mL
same,MIC,[5]; [25],64 µg/mL
same,MIC,[5]; [26],125 µg/mL
same,MIC,[5]; [27],125 µg/mL
same,MIC,[5]; [28],8 µg/mL
same,MIC,[5]; [29],32 µg/mL
same,MIC,[5]; [30],64 µg/mL
same,MIC,[5]; [31],32 µg/mL
same,MIC,[5]; [32],125 µg/mL
same,MIC,[5]; [33],32 µg/mL
same,MIC,[5]; [34],64 µg/mL
same,MIC of compound 4,[5]; strain AB967,NG
same,MIC of compound 4,[5]; strain AB2828,NG
same,MIC of compound 4,[5]; strain AB3340,NG
same,MIC of compound 4,[5]; strain AB3560,NG
same,MIC of compound 4,[5]; strain AB3927,NG
same,MIC,"[6]; strain AB967, read-out: MIC of compound 4",500 µg/mL
same,MIC,"[6]; strain AB2828, read-out: MIC of compound 4",500 µg/mL
same,MIC,"[6]; strain AB3340, read-out: MIC of compound 4",500 µg/mL
same,MIC,"[6]; strain AB3560, read-out: MIC of compound 4",500 µg/mL
same,MIC,[6]; [10],500 µg/mL
same,MIC,[6]; [11],500 µg/mL
same,MIC,[6]; [12],1000 µg/mL
same,MIC,[6]; [13],500 µg/mL
same,MIC,"[6]; strain AB3927, read-out: MIC of compound 4",500 µg/mL
same,MIC,[6]; [14],500 µg/mL
same,MIC,[6]; [15],500 µg/mL
same,MIC,[6]; [16],500 µg/mL
same,MIC,[6]; [17],1000 µg/mL
same,MIC,[6]; [18],500 µg/mL
same,MIC,[6]; [19],500 µg/mL
same,MIC,[6]; [20],500 µg/mL
same,MIC,[6]; [21],500 µg/mL
same,MIC,[6]; [22],500 µg/mL
same,MIC,[6]; [23],500 µg/mL
same,MIC,[6]; [24],500 µg/mL
same,MIC,[6]; [25],500 µg/mL
same,MIC,[6]; [26],500 µg/mL
same,MIC,[6]; [27],500 µg/mL
same,MIC,[6]; [28],500 µg/mL
same,MIC,[6]; [29],500 µg/mL
same,MIC,[6]; [30],500 µg/mL
same,MIC,[6]; [31],500 µg/mL
same,MIC,[6]; [32],500 µg/mL
same,MIC,[6]; [33],500 µg/mL
same,MIC,[6]; [34],500 µg/mL
same,OD600 in growth curves (inhibition of growth),[7],dramatically reduced
same,stability in aqueous solution,[8],highly stable
same,antibacterial activity,[4],antibacterial activity
